# Measurements: PubChem BioAssay AID1259407 (Chemical Carcinogenesis Research Information System (CCRIS), 2018)
# Active and inactive are the calls of the source. No rule for the calls is given here.
# Test system: CCRIS mutagenicity, Ames/micronucleus/aberration tests
# Test: CCRIS mutagenicity studies
# Conditions: Test System: AMES SALMONELLA TYPHIMURIUM
# [1] = Strain/Indicator: TA98, Metabolic Activation: NONE, Method: STANDARD PLATE
# [2] = Strain/Indicator: TA98, Metabolic Activation: RAT, LIVER, S-9, AROCLOR 1254, Method: STANDARD PLATE
# [3] = Strain/Indicator: TA98, Metabolic Activation: NONE, Method: PREINCUBATION
# [4] = Strain/Indicator: TA100, Metabolic Activation: NONE, Method: PREINCUBATION
# [5] = Strain/Indicator: TA1535, Metabolic Activation: NONE, Method: PREINCUBATION
structure (smiles),measurement,setting,value
C=C(C)C(=O)OCC(C)(C)COC(=O)C(=C)C,mutagenic call,[1],inactive; negative
same,mutagenic call,[2],inactive; negative
same,mutagenic call,"Strain/Indicator: TA98, Metabolic Activation: RAT, LIVER, S-9, SODIUM PHENOBARBITAL, Method: STANDARD PLATE",inactive; negative
same,mutagenic call,"Strain/Indicator: TA100, Metabolic Activation: NONE, Method: STANDARD PLATE",inactive; negative
same,mutagenic call,"Strain/Indicator: TA100, Metabolic Activation: RAT, LIVER, S-9, AROCLOR 1254, Method: STANDARD PLATE",inactive; negative
same,mutagenic call,"Strain/Indicator: TA100, Metabolic Activation: RAT, LIVER, S-9, SODIUM PHENOBARBITAL, Method: STANDARD PLATE",inactive; negative
same,mutagenic call,"Strain/Indicator: TA1535, Metabolic Activation: NONE, Method: STANDARD PLATE",inactive; negative
same,mutagenic call,"Strain/Indicator: TA1535, Metabolic Activation: RAT, LIVER, S-9, AROCLOR 1254, Method: STANDARD PLATE",inactive; negative
same,mutagenic call,"Strain/Indicator: TA1535, Metabolic Activation: RAT, LIVER, S-9, SODIUM PHENOBARBITAL, Method: STANDARD PLATE",inactive; negative
same,mutagenic call,"Strain/Indicator: TA1537, Metabolic Activation: NONE, Method: STANDARD PLATE",inactive; negative
same,mutagenic call,"Strain/Indicator: TA1537, Metabolic Activation: RAT, LIVER, S-9, AROCLOR 1254, Method: STANDARD PLATE",inactive; negative
same,mutagenic call,"Strain/Indicator: TA1537, Metabolic Activation: RAT, LIVER, S-9, SODIUM PHENOBARBITAL, Method: STANDARD PLATE",inactive; negative
same,mutagenic call,"Strain/Indicator: TA1538, Metabolic Activation: NONE, Method: STANDARD PLATE",inactive; negative
same,mutagenic call,"Strain/Indicator: TA1538, Metabolic Activation: RAT, LIVER, S-9, AROCLOR 1254, Method: STANDARD PLATE",inactive; negative
same,mutagenic call,"Strain/Indicator: TA1538, Metabolic Activation: RAT, LIVER, S-9, SODIUM PHENOBARBITAL, Method: STANDARD PLATE",inactive; negative
CC(C)(C)OOC(C)(C)C,mutagenic call,"Strain/Indicator: TA97, Metabolic Activation: HAMSTER, LIVER, S-9, AROCLOR 1254 (10%), Method: PREINCUBATION",inactive; negative
same,mutagenic call,"Strain/Indicator: TA97, Metabolic Activation: HAMSTER, LIVER, S-9, AROCLOR 1254 (30%), Method: PREINCUBATION",inactive; negative
same,mutagenic call,"Strain/Indicator: TA97, Metabolic Activation: NONE, Method: PREINCUBATION",inactive; negative
same,mutagenic call,"Strain/Indicator: TA97, Metabolic Activation: RAT, LIVER, S-9, AROCLOR 1254 (10 OR 30%), Method: PREINCUBATION",inactive; negative
same,mutagenic call,"Strain/Indicator: TA98, Metabolic Activation: HAMSTER, LIVER, S-9, AROCLOR 1254 (10%), Method: PREINCUBATION",inactive; negative
same,mutagenic call,"Strain/Indicator: TA98, Metabolic Activation: HAMSTER, LIVER, S-9, AROCLOR 1254 (30%), Method: PREINCUBATION",inactive; negative
same,mutagenic call,[3],inactive; negative
same,mutagenic call,"Strain/Indicator: TA98, Metabolic Activation: RAT, LIVER, S-9, AROCLOR 1254 (10 OR 30%), Method: PREINCUBATION",inactive; negative
same,mutagenic call,"Strain/Indicator: TA100, Metabolic Activation: HAMSTER, LIVER, S-9, AROCLOR 1254 (10%), Method: PREINCUBATION",inactive; negative
same,mutagenic call,"Strain/Indicator: TA100, Metabolic Activation: HAMSTER, LIVER, S-9, AROCLOR 1254 (30%), Method: PREINCUBATION",inactive; negative
same,mutagenic call,[4],inactive; negative
same,mutagenic call,"Strain/Indicator: TA100, Metabolic Activation: RAT, LIVER, S-9, AROCLOR 1254 (10 OR 30%), Method: PREINCUBATION",inactive; negative
same,mutagenic call,"Strain/Indicator: TA1535, Metabolic Activation: HAMSTER, LIVER, S-9, AROCLOR 1254 (10%), Method: PREINCUBATION",inactive; negative
same,mutagenic call,"Strain/Indicator: TA1535, Metabolic Activation: HAMSTER, LIVER, S-9, AROCLOR 1254 (30%), Method: PREINCUBATION",inactive; negative
same,mutagenic call,[5],inactive; negative
same,mutagenic call,"Strain/Indicator: TA1535, Metabolic Activation: RAT, LIVER, S-9, AROCLOR 1254 (10 OR 30%), Method: PREINCUBATION",inactive; negative
CC(C)(C)NC[C@@H](O)COc1ccccc1C1CCCC1,mutagenic call,[1],active; positive
same,mutagenic call,[2],active; positive
Cc1n[nH]c(=O)[nH]c1=O,mutagenic call,"Strain/Indicator: TA98, Metabolic Activation: MAIZE SEEDLING, S-14, Method: PREINCUBATION",inactive; negative
same,mutagenic call,"Strain/Indicator: TA98, Metabolic Activation: MOUSE, LIVER, S-9, Method: PREINCUBATION",inactive; negative
same,mutagenic call,[3],inactive; negative
same,mutagenic call,"Strain/Indicator: TA100, Metabolic Activation: MAIZE SEEDLING, S-14, Method: PREINCUBATION",inactive; negative
same,mutagenic call,"Strain/Indicator: TA100, Metabolic Activation: MOUSE, LIVER, S-9, Method: PREINCUBATION",inactive; negative
same,mutagenic call,[4],inactive; negative
same,mutagenic call,[5],inactive; negative
same,mutagenic call,"Strain/Indicator: TA1537, Metabolic Activation: NONE, Method: PREINCUBATION",inactive; negative
same,mutagenic call,"Strain/Indicator: TA1538, Metabolic Activation: NONE, Method: PREINCUBATION",inactive; negative
